Source: PubChem BioAssay (NCI)
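Test compounds were applied to cells in 96-well plates for 48 hours at 5 doses. Definition used: TGI = concentration required for complete inhibition of growth.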

Columns and labels:
Experiment in all cases: DTP human tumour cell line panel, 48 h
SK-MEL-28 melanoma = tested on: SK-MEL-28 melanoma
HCT-15 colon = tested on: HCT-15 colon
SF-295 CNS = tested on: SF-295 CNS
NCI-H23 lung = tested on: NCI-H23 lung
NCI-H226 lung = tested on: NCI-H226 lung
HT29 colon = tested on: HT29 colon
OVCAR-5 ovarian = tested on: OVCAR-5 ovarian
RXF 393 renal = tested on: RXF 393 renal
OVCAR-3 ovarian = tested on: OVCAR-3 ovarian
SF-268 CNS = tested on: SF-268 CNS
SK-MEL-5 melanoma = tested on: SK-MEL-5 melanoma
SNB-78 CNS = tested on: SNB-78 CNS
UO-31 renal = tested on: UO-31 renal
M14 melanoma = tested on: M14 melanoma
LXFL 529 NSCLC = tested on: LXFL 529 NSCLC
SR leukemia = tested on: SR leukemia
MDA-MB-231 breast = tested on: MDA-MB-231 breast
BT-549 breast = tested on: BT-549 breast
T-47D breast = tested on: T-47D breast
MDA-MB-435 = tested on: MDA-MB-435

Measured: TGI

N/C(=N\N=C/c1c(O)cc(O)cc1O)NO
not listed: M14 melanoma | LXFL 529 NSCLC | SR leukemia | MDA-MB-231 breast | BT-549 breast | T-47D breast | MDA-MB-435
> 100 µM: all other assays above

CN1Cc2ccccc2C2(COc3ccccc3C2=O)C1 (centres undefined)
87.8 µM: SR leukemia
not listed: SK-MEL-28 melanoma | MDA-MB-231 breast | BT-549 breast | T-47D breast | MDA-MB-435
> 100 µM: all other assays above

Cc1cc(C)c(S(=O)(=O)N(CCCCCN)OCCCN)c(C)c1
33.4 µM: NCI-H23 lung
29.9 µM: NCI-H226 lung
35.5 µM: SK-MEL-5 melanoma
36.2 µM: OVCAR-3 ovarian
27.1 µM: UO-31 renal
27.9 µM: HT29 colon
49 µM: MDA-MB-231 breast
33.7 µM: OVCAR-5 ovarian
32.4 µM: BT-549 breast
37.7 µM: T-47D breast
30.4 µM: SF-295 CNS
32.2 µM: SK-MEL-28 melanoma
37 µM: M14 melanoma
43.9 µM: SR leukemia
37.6 µM: SF-268 CNS
34.9 µM: MDA-MB-435
24.8 µM: RXF 393 renal

CC(=O)c1c(-c2ccco2)c(C#N)c(=S)n(C2OC(CO)C(O)C(O)C2O)c1C (centres undefined)
not listed: NCI-H226 lung | SNB-78 CNS | LXFL 529 NSCLC
> 100 µM: all other assays above

CN1COCN=C1NC#N
not listed: NCI-H23 lung | RXF 393 renal | SK-MEL-5 melanoma | SR leukemia | MDA-MB-231 breast | BT-549 breast | T-47D breast | MDA-MB-435
> 100 µM: all other assays above
